The results in this text go back to DBAASP.

Values after ≈ are worked out from the molar mass of the structure shown.

Some test systems named below: Candida glabrata; Bacillus cereus C737; Bacillus cereus; Escherichia coli UB1005; Escherichia coli; Leuconostoc lactis; Listeria innocua; Micrococcus luteus; Pasteurella multocida; Staphylococcus aureus; Streptococcus uberis.
Test in all cases: ≥ marks a high value that may be exact or a test limit, other limits are often not marked, values filed in µg/mL are converted to µM
Experiment [1] relates to Candida albicans IHEM 8060.
For experiment [2], the system named is Pseudomonas aeruginosa PAO1.
The test system of experiment [3] is Staphylococcus epidermidis.

`CC[C@H](C)[C@@H]1NC(=O)[C@@H](N)CSSC[C@@H]2NC(=O)[C@@H]3CSSC[C@@H](C(=O)N[C@@H](CCCN=C(N)N)C(=O)O)NC(=O)[C@H](Cc4ccc(O)cc4)NC(=O)CNC(=O)[C@H](C)NC(=O)[C@H](C(C)C)NC(=O)[C@H](Cc4c[nH]c5ccccc45)NC(=O)CNC(=O)[C@@H]4CCCN4C(=O)[C@H](CCC(=O)O)NC(=O)[C@H](CCCCN)NC(=O)[C@H](Cc4cnc[nH]4)NC(=O)[C@H](CSSC[C@H](NC(=O)CNC(=O)[C@H](CC(N)=O)NC(=O)[C@H](CCCN=C(N)N)NC(=O)[C@H](CC(N)=O)NC(=O)[C@H](C)NC1=O)C(=O)N[C@@H](CCC(N)=O)C(=O)N1CCC[C@H]1C(=O)N[C@@H](CC(=O)O)C(=O)NCC(=O)N[C@@H](CO)C(=O)N[C@@H](CCC(N)=O)C(=O)NCC(=O)N[C@@H](CC(N)=O)C(=O)N3)NC(=O)[C@H](Cc1ccc(O)cc1)NC(=O)CNC(=O)[C@H](CO)NC2=O` [CIANRNGCQPDGSQGNCCSGYCHKEPGWVAGYCR]: the MIC (in experiment [1]; against Candida glabrata) was 17.6 µM (≈ 63.9 µg/mL) each time.

Regarding `CC[C@H](C)[C@H](NC(=O)[C@H](CC(=O)O)NC(=O)[C@H](Cc1ccccc1)NC(=O)[C@H](CC(C)C)NC(=O)CN)C(=O)N[C@H](C(=O)N[C@@H](CCCCN)C(=O)N[C@@H](CCCCN)C(=O)N[C@H](C(=O)N[C@H](C(=O)NCC(=O)N[C@@H](C)C(=O)N[C@@H](CC(C)C)C(=O)NCC(=O)N[C@@H](CO)C(=O)N[C@@H](CC(C)C)C(N)=O)C(C)C)C(C)C)C(C)C` [GLFDIVKKVVGALGSL], the MIC against Bacillus cereus C737 is at least 79.2 µM; in the experiment on Bacillus cereus, at least 61.9 µM; in the experiment on Escherichia coli UB1005, at least 39.6 µM; in the experiment on Escherichia coli, over 61.9 µM; against Leuconostoc lactis, 7.43 µM (≈ 12 µg/mL); against Listeria innocua, 7.43 µM (≈ 12 µg/mL). The MIC in the experiment with Micrococcus luteus is 15.5 µM (≈ 25 µg/mL); against Pasteurella multocida it was at least 61.9 µM; in experiment [2] it was over 79.2 µM; against Staphylococcus aureus, 15.5 µM (≈ 25 µg/mL); in [3], 15.5 µM (≈ 25 µg/mL); against Streptococcus uberis, at least 61.9 µM.
